Measured values reported in ChEMBL document CHEMBL5518204, “Discovery and Proof of Concept of Potent Dual Polθ/PARP Inhibitors for Efficient Treatment of Homologous Recombination-Deficient Tumors” (J Med Chem, 2024).
Activity calls are given as the source filed them. No cut-off for these calls is given here.

Experiments:
[1] = Metabolic stability in mouse liver microsome assessed as intrinsic clearance; format: ADME; conditions: liver microsomes, read-out: CLH
[2] = tested on: MDA-MB-436; assay: Antiproliferative activity against human MDA-MB-436 cells transfected with SiRNA assessed as inhibition of cell proliferation incubated for 5 days by MTT assay; format: functional, cell-based; conditions: time 5.0 day
[3] = target: Poly [ADP-ribose] polymerase 1 (Homo sapiens, UniProt P09874); assay: Inhibition of human PARP1 incubated for 90 mins by colorimetric assay
Poly [ADP-ribose] polymerase 1, sequence (P09874 whole entry): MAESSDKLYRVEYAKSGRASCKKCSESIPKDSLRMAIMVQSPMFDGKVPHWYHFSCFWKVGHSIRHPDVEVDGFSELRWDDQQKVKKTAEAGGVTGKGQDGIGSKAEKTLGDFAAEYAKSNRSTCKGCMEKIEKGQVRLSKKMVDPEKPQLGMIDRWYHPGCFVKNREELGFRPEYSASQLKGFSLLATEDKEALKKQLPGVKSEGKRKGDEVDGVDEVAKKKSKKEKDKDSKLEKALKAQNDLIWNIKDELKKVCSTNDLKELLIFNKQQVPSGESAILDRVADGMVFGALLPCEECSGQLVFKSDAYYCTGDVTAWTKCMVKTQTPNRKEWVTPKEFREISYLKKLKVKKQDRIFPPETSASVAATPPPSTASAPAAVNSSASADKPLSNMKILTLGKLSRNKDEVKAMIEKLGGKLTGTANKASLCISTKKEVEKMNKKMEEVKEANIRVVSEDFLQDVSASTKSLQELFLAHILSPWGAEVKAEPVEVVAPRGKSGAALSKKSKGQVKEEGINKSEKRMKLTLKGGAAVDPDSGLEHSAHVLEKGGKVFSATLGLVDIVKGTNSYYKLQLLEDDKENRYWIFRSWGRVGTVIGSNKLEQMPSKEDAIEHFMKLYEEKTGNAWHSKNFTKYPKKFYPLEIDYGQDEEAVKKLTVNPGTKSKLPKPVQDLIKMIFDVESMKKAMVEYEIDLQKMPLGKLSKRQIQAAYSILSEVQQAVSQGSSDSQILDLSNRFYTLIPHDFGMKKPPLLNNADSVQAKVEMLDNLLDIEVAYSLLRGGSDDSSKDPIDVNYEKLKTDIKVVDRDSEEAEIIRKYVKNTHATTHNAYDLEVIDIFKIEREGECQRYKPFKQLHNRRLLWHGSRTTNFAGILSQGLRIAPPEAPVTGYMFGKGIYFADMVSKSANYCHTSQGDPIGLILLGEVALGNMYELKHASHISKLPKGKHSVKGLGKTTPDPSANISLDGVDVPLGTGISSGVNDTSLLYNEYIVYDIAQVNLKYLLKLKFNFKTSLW

[4] = Clearance in Sprague-Dawley rat at 1 mg/kg, iv by LC-MS/MS analysis; format: ADME, organism-based; conditions: in vivo
[5] = Cmax in Sprague-Dawley rat at 1 mg/kg, iv by LC-MS/MS analysis; format: ADME, organism-based; conditions: in vivo
[6] = Tmax in Sprague-Dawley rat at 1 mg/kg, iv by LC-MS/MS analysis; format: ADME, organism-based; conditions: in vivo
[7] = tested on: MDA-MB-231; assay: Antitumor activity against human MDA-MB-231 cells xenografted in BALB/c mouse assessed as tumor growth inhibition at 40 mg/kg, ip administered for 21 days; format: functional; conditions: MDA-MB-231, 504 h, time 21 day, read-out: TGI
[8] = target: T1, Poly [ADP-ribose] polymerase tankyrase-1 (Homo sapiens, UniProt O95271); assay: Inhibition of PARP5a (unknown origin)
T1 sequence (O95271 whole entry): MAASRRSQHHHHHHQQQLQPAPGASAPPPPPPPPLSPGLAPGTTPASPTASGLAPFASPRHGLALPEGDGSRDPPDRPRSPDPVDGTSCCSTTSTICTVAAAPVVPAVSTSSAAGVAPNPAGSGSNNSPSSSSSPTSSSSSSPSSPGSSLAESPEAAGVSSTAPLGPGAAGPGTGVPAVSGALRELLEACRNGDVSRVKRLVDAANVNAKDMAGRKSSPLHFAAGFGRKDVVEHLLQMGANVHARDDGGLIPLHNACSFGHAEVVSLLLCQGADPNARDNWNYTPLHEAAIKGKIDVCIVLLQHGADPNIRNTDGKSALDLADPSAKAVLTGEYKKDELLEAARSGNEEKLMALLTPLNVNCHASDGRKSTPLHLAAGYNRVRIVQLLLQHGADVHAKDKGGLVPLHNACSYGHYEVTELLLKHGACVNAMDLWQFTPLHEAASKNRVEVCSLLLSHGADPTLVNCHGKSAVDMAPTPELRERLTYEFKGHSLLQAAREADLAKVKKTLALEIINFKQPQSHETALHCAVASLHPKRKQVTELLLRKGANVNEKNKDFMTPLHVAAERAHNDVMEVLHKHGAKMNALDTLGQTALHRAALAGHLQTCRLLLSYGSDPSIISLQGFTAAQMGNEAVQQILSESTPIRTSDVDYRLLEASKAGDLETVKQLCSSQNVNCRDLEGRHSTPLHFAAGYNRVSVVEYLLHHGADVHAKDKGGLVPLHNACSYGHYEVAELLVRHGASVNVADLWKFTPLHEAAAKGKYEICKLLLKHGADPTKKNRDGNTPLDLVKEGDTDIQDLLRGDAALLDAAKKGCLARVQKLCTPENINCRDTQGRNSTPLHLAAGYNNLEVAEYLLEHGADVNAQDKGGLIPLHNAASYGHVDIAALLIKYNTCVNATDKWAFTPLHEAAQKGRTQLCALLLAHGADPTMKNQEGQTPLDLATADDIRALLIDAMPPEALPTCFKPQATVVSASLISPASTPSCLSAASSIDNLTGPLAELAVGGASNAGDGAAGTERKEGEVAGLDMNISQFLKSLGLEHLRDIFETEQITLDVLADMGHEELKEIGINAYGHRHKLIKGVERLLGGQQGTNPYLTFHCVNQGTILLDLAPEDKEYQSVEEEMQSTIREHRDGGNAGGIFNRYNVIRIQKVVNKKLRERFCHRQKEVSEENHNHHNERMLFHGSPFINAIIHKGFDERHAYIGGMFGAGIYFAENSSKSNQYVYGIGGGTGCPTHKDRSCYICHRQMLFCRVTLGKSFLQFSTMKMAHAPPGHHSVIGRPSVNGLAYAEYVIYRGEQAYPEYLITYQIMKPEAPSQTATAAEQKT

[9] = tested on: MDA-MB-231; assay: Antiproliferative activity against human MDA-MB-231 cells incubated for 4 days by MTT assay; format: functional, cell-based; conditions: time 4.0 day
[10] = Toxicity in BALB/c mouse xenografted with human MDA-MB-231 cells assessed as increase in body weight at 20 to 40 mg/kg, ip administered for 21 days; format: organism-based; conditions: in vivo, 504 h, dose 20-40 mg/kg, time 21 day
[11] = Toxicity in BALB/c mouse xenografted with human MDA-MB-231 cells assessed as spleen damage at 20 to 40 mg/kg, ip administered for 21 days by H and E staining based analysis; format: organism-based; conditions: in vivo, 504 h, dose 20-40 mg/kg, time 21 day
[12] = tested on: MDA-MB-231; assay: Induction of DNA damage in human MDA-MB-231 cells assessed as increase in gammaH2AX foci at 2 uM incubated for 3 days by DAPI staining based confocal laser scanning microscopic analysis; format: functional, cell-based; conditions: time 3.0 day
[13] = target: T2, Protein mono-ADP-ribosyltransferase PARP8 (Homo sapiens, UniProt Q8N3A8); assay: Inhibition of PARP8 (unknown origin)
T2 sequence (Q8N3A8 whole entry): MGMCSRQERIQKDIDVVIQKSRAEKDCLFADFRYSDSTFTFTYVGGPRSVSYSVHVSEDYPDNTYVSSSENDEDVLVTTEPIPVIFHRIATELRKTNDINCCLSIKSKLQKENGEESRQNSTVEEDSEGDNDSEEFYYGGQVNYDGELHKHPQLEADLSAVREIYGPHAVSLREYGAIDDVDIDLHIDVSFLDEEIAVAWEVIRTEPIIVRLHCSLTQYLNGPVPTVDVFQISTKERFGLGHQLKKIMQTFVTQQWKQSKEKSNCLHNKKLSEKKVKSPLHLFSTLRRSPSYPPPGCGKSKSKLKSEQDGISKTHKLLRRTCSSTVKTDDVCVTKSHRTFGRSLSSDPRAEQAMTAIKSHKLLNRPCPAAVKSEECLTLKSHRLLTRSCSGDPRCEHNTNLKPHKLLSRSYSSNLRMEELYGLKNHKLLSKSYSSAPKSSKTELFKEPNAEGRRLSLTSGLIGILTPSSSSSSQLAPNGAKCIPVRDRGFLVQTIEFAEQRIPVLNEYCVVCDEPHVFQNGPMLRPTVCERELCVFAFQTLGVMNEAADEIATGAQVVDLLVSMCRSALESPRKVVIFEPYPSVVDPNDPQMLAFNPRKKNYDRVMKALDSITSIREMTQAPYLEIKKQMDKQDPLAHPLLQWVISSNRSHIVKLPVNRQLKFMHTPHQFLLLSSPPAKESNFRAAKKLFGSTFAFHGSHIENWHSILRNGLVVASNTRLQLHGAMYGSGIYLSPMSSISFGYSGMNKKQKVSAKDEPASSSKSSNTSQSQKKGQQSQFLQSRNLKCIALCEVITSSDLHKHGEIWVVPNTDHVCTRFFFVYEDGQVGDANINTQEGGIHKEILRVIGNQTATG

With `COc1ccc(Cl)cc1-c1cc(C)ncc1C(=O)Nc1nnc(OCC2CCN(C(=O)c3cc(Cc4n[nH]c(=O)c5ccccc45)ccc3F)CC2)s1` the CLint scaled [1] was 1070 mL/min/kg, the Activity [2] was “Active” and the IC50 [3] was 5.4 nM. It also gave a clearance [4] of 22.7 mL/min/kg, a Cmax [5] of 1950 ng/mL and a Tmax [6] of 4.8 min. The inhibition in vivo at 40 mg/kg [7] was 74.7%, the IC50 [8] was 206 nM and the Activity [9] was “Active”. For the same molecule, the Activity [10] was “Non-Toxic”, the Activity [11] was “Non-Toxic” and the Activity [12] was “Active”. For the same molecule, the IC50 [13] was 2930 nM.
